Results taken from patent US20160317632A1, “USE OF CBP/EP300 BROMODOMAIN INHIBITORS FOR CANCER IMMUNOTHERAPY” (GENENTECH, INC., priority 2013, published 2016).

Assays:
Format in all cases: cell-based, human
iTreg cells [1] = test: Foxp3 expression in iTreg differentiating cells by q-RT-PCR (FIG. 7)
Procedure: (§1) Naïve CD4+CD45RA+ T cells were isolated from healthy human PBMCs using Miltenyi Biotec naïve human T cell isolation kit (cat#130-094-131). Isolated cells were cultured at 10e6 cells/ml under iTreg-differentiation conditions using Dynabeads (Invitrogen; cat#11132D) at 1:1 ratio of beads to cells+human recombinant IL-2 (10 ng/ml) (R&D, cat#202-IL-010)+human recombinant TGFb (10 ng/ml) (Invitrogen; cat# PHG9204). After 16 hours the CBP inhibitors CBP/EP300(3) and CBP/EP300(4) were added using DMSO as control. CD8+ T cells were isolated from healthy human PBMCs using Militenyi Biotec human CD8 T cell isolation kit (cat#130-095-236) and cultured at 10e6 cells/ml with human T activator Dynabeads at 1:1 ratio of cells to cells with the addition of 10 ng/ml of recombinant human IL-2. 3 days after CD8+ T cell stimulation supernatants were collected and analyzed for CD8+ T cell associated effector function cytokines IFNg and TNFα by Luminex. […]
3 days after CD8+ T cell stimulation mRNA was extracted using mRNA Catcher™ PLUS Purification Kit (Invitrogen; K1570-02). Gene expression of Lag3, CTLA4 and TIM3, genes encoding inhibitory receptors on the surface of CD8+ T cells and under the transcriptional control of CBP/p300, was analyzed by q-RT-PCR. Foxp3 expression and Granzyme B (GZMB) expression, a gene encoding effector function of CD8+ T cells, were also analyzed by q-RT-PCR. […]

iTreg cells [2] = test: Foxp3 protein expression in iTreg cells by flow cytometry (FIG. 8); settings: 4 days after stimulation
Procedure: as §1
Cells from iTreg cultures were first stained with CD4 APC-CY7 and CD25 Pacific blue (both from BD pharmigen, cat#557811 and 560355, respectively); this was followed by fixation/permeabilization step and staining for intracellular Foxp3 FITC using human Foxp3 staining kit (eBioscience; cat#77-5774-40) according to the manufacturer protocol. FOXP3 expression by FACS was typically measured 4 d post-activation.

CD8+ T cells [3] = test: gene expression in stimulated CD8+ T cells by q-RT-PCR (FIGS. 9-10); settings: for expression of LAG3, TIM3 and CTLA4: FIG. 9; for GZMB expression (effector function of CD8+ T cells): FIG. 10
Procedure: (§2) Naïve CD4+CD45RA+ T cells were isolated from healthy human PBMCs using Miltenyi Biotec naïve human T cell isolation kit (cat#130-094-131). Isolated cells were cultured at 10e6 cells/ml under iTreg-differentiation conditions using Dynabeads (Invitrogen; cat#11132D) at 1:1 ratio of beads to cells+human recombinant IL-2 (10 ng/ml) (R&D, cat#202-IL-010)+human recombinant TGFb (10 ng/ml) (Invitrogen; cat# PHG9204). After 16 hours the CBP inhibitors CBP/EP300(3) and CBP/EP300(4) were added using DMSO as control. CD8+ T cells were isolated from healthy human PBMCs using Militenyi Biotec human CD8 T cell isolation kit (cat#130-095-236) and cultured at 10e6 cells/ml with human T activator Dynabeads at 1:1 ratio of cells to cells with the addition of 10 ng/ml of recombinant human IL-2. 3 days after CD8+ T cell stimulation supernatants were collected and analyzed for CD8+ T cell associated effector function cytokines IFNg and TNFα by Luminex. Data in FIG. 10 show IFNγ (A) and TNFα (B) (pg/ml) secreted in the supernatants of CD8+ T cells stimulated with compounds CBP/EP300(3) and CBP/EP300(4), using DMSO as control.
3 days after CD8+ T cell stimulation mRNA was extracted using mRNA Catcher™ PLUS Purification Kit (Invitrogen; K1570-02). Gene expression of Lag3, CTLA4 and TIM3, genes encoding inhibitory receptors on the surface of CD8+ T cells and under the transcriptional control of CBP/p300, was analyzed by q-RT-PCR. Foxp3 expression and Granzyme B (GZMB) expression, a gene encoding effector function of CD8+ T cells, were also analyzed by q-RT-PCR. Beta-2-microglobulin (B2M) was used as house-keeping gene.

CD8+ T cells [4] = test: IFNγ and TNFα in supernatants of stimulated CD8+ T cells by Luminex; settings: supernatants 3 days after stimulation
Procedure: as §2

SMILES	Foxp3 expression, fold change over unstimulated naïve T cells (iTreg cells [1])	Foxp3 protein expression (iTreg cells [2])	expression of LAG3, TIM3 and CTLA4 (CD8+ T cells [3])	GZMB expression (effector function of CD8+ T cells) (CD8+ T cells [3])	cytokine production (IFNγ, TNFα) by CD8+ T cells (CD8+ T cells [4])
COc1ccc2c(c1)N(CCCNC(=O)c1cccc3c1N[C@H](C)C(=O)N3)CCC2 [CBP/EP300(4)]	decrease Foxp3 expression in iTreg cells in a dose dependent manner	decrease Foxp3 protein expression in iTreg cells	dose-dependent reduction in the expression of LAG3, TIM3 and CTLA4	did not affect effector function of CD8+ T cells	minimally affect
C[C@H]1Nc2c(cccc2C(=O)NCCCN2CCOc3ccccc32)NC1=O [CBP/EP300(3)]	decrease Foxp3 expression in iTreg cells in a dose dependent manner	decrease Foxp3 protein expression in iTreg cells	dose-dependent reduction in the expression of LAG3, TIM3 and CTLA4	did not affect effector function of CD8+ T cells	minimally affect
